Experiment [1] deals with NMDAR. Conditions: cited from earlier work; for NMDAR agonist activity or effect on the holding current: ref Saptoka et al., 2017.
For experiment [2], the system named is GluN1/GluN2A-D diheteromeric NMDARs. Put plainly: TEVC electrophysiology, values stated in the text across several GluN2 subtypes. Format: cell-based, rat.
Experiment [3] addresses T1, GluN1/GluN2A NMDAR (Rattus norvegicus, UniProt P35439+Q00959). Put plainly: TEVC electrophysiology on recombinant NMDA receptors. It counts as cell-based.
Experiment [4] deals with GluN1/GluN2A-D diheteromeric NMDARs. As to conditions: cited from earlier work.
Experiment [5] has as its target GluN1/GluN2B NMDAR (Rattus norvegicus, UniProt P35439+Q00960). Put plainly: TEVC electrophysiology on recombinant NMDA receptors. It counts as cell-based. Conditions: for fold greater inhibitory activity on GluN2B compared to 7: from IC50 values, Table 6.
The target of experiment [6] is GluN1/GluN2D NMDAR (Rattus norvegicus, UniProt P35439+Q62645). Described as above. It counts as cell-based. As to conditions: for percentage maximum inhibition of the agonist response, GluN2D: value in parenthesis, ± s.e.m., L-glutamate 10 μM and glycine 10 μM.
Chain of GluN1/GluN2D NMDAR (Q62645 28-1323, other chains not shown): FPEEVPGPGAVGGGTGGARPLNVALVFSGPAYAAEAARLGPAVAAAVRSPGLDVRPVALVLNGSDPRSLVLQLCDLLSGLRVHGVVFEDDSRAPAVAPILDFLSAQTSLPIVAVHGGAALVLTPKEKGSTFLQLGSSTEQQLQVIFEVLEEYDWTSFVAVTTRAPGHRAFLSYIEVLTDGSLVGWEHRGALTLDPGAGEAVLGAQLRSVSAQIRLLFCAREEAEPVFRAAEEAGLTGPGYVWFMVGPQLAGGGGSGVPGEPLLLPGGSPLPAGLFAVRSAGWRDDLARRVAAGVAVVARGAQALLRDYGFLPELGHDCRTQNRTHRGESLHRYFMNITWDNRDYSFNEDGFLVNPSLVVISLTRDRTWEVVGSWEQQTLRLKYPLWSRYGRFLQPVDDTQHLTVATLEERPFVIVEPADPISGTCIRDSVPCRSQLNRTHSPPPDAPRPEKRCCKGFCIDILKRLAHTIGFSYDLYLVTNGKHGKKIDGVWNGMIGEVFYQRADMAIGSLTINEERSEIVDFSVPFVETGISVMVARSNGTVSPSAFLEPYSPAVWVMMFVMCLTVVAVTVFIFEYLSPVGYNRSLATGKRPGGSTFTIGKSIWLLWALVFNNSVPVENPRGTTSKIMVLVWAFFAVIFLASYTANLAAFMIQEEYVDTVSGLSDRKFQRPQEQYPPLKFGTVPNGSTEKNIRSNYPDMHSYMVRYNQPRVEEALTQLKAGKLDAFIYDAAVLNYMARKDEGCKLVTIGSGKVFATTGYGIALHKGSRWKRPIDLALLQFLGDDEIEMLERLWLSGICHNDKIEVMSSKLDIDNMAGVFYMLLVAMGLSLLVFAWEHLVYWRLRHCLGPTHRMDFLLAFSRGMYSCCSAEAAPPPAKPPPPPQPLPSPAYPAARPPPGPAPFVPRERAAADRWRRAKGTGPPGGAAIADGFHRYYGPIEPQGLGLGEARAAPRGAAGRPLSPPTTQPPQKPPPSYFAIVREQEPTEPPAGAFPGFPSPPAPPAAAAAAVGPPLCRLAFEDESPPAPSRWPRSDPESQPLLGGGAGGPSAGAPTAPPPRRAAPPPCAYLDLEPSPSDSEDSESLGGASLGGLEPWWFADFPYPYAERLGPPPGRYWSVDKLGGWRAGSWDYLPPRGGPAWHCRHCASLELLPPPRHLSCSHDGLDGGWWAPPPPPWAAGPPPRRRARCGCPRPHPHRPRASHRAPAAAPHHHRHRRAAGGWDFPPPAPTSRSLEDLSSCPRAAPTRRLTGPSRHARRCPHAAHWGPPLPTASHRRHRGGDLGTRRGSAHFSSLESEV
In experiment [7] the target is GluN1/GluN2C NMDAR (Rattus norvegicus, UniProt P35439+Q00961). The experiment is described as above. It counts as cell-based. Conditions: from IC50 values, Table 6.
The target in experiment [8] is T1, GluN1/GluN2A NMDAR. Conditions: ref 7a; cited from earlier work.

T1 sequence (Q00959 23-1464, other chains not shown): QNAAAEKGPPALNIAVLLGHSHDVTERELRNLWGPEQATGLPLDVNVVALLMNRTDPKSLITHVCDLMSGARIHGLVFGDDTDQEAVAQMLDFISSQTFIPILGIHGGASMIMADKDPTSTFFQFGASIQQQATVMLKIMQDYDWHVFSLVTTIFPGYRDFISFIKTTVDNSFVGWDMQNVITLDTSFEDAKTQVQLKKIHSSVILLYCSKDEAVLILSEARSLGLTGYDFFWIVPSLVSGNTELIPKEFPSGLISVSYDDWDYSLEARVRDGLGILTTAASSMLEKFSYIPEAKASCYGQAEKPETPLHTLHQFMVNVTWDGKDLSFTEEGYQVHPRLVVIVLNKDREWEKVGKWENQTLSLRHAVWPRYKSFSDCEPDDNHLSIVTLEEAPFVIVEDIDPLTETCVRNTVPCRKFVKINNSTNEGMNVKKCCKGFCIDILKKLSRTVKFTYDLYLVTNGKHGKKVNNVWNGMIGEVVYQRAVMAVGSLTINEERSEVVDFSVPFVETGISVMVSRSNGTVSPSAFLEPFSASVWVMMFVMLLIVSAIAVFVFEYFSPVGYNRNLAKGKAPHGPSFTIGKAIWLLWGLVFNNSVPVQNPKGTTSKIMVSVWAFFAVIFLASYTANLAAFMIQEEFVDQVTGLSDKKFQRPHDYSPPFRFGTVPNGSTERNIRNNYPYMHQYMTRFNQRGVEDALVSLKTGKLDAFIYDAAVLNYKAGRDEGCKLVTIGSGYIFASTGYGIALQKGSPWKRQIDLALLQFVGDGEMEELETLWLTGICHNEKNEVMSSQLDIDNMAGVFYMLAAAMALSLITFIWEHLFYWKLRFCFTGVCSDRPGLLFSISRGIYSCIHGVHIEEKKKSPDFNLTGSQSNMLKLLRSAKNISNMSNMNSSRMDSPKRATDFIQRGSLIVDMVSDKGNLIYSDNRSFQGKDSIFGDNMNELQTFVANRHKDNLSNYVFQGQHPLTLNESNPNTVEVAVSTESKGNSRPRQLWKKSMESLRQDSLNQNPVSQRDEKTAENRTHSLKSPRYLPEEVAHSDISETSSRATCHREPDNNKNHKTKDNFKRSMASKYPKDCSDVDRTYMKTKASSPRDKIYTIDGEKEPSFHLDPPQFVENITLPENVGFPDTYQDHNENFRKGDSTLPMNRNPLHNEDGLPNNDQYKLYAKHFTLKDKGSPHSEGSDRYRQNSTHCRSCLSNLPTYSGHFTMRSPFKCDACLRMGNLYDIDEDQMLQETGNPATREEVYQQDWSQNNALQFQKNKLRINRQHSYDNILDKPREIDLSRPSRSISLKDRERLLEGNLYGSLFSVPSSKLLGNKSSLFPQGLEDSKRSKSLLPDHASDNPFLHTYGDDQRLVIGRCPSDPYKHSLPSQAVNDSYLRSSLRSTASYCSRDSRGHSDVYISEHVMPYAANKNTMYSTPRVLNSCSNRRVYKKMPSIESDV
Chain of GluN1/GluN2B NMDAR (Q00960 27-1482, other chains not shown): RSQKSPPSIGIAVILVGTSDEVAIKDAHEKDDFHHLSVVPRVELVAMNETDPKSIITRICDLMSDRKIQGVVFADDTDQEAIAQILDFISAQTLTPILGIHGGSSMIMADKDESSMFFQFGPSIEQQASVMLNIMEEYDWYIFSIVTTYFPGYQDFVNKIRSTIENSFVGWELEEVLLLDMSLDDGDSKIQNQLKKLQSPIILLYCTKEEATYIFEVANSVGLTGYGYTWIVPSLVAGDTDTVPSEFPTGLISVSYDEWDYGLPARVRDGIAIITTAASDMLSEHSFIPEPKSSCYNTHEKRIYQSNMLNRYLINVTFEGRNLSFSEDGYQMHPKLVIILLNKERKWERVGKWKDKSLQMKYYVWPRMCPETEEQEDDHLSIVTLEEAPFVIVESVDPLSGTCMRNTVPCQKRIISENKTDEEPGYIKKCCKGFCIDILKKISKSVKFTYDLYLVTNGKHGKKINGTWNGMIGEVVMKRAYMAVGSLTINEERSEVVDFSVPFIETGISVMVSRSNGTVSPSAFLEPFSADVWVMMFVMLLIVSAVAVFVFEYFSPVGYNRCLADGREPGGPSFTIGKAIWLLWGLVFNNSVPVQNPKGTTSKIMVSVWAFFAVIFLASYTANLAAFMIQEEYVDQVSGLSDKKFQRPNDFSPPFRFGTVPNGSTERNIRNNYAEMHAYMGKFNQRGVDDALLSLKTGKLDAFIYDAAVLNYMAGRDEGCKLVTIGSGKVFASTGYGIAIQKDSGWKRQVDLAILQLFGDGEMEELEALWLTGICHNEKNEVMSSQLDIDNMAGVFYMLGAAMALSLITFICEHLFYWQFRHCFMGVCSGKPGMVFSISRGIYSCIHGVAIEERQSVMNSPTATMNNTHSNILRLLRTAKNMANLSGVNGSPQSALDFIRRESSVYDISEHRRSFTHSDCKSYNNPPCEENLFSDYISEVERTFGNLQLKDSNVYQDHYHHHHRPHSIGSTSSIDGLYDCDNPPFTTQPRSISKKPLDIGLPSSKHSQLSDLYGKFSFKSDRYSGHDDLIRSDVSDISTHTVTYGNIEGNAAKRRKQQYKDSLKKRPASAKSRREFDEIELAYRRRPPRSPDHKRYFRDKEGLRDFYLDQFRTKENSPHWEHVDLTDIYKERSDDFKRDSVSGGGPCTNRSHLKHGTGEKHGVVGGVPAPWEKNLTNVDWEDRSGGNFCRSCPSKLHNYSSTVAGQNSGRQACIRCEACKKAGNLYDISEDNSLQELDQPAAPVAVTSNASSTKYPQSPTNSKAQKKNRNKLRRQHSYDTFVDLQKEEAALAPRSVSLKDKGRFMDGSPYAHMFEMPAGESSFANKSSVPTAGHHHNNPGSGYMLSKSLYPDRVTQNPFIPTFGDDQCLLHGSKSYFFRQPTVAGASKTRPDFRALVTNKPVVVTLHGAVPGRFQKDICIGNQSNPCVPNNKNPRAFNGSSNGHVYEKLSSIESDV

On to `CC(C)CCC(C)c1ccc2cc(C(=O)O)ccc2c1` (racemic) [Compound 46, (RS)-6-(5-Methylhexan-2-yl)-2-naphthoic acid], for which the “NMDAR agonist activity or effect on the holding current” value in experiment [1] is “no NMDAR agonist activity or effect on the holding current”.

For `CCc1ccc2cc(C(=O)O)ccc2c1` [6-ethyl derivative], in experiment [2] (100 μM, range over GluN2A-D), the “percentage inhibition on GluN2A-D” value is recorded as 17–52%.

For orientation: inhibition means the change of the read-out against control, counted positive when it falls. For the compound `O=C(O)c1ccc2cc(I)ccc2c1` [6-iodo-2-naphthoic acid], in experiment [2] (100 μM, range over GluN2B-D), the “inhibitory activity on GluN2B-D” value is on record as 9–12%. For the same compound, the inhibition at 100 µM in experiment [3] (read-out: inhibition of the agonist response on GluN2A) turned out to be 26 ± 2%.

As for `CCCc1ccc2cc(C(=O)O)ccc2c1` [6-n-propyl derivative], the “percentage inhibition on GluN2A-D” value in experiment [2] (100 μM, range over GluN2A-D) is 0–14%.

In the case of `O=C(O)c1ccc2cc(I)c3ccccc3c2c1` [Compound 1, reference compound], the “glutamate-site or glycine-site NMDAR agonist activity; activity in the absence of agonists” value in experiment [1] is “did not display glutamate-site or glycine-site NMDAR agonist activity”.

With `O=C(O)c1cc2cc(-c3ccccc3)ccc2cc1O` [Compound 7, reference compound], the “glutamate-site or glycine-site NMDAR agonist activity; activity in the absence of agonists” value in experiment [1] is given as “did not display glutamate-site or glycine-site NMDAR agonist activity”. For the same compound, the “maximal inhibition of GluN2A and GluN2B” value in experiment [4] is reported as 57–72%.

The term EC50 denotes the midpoint of the concentration-response curve. For `CC(C)CCCc1ccc2cc(C(=O)O)ccc2c1` [Compound 14b, 6-(4-Methylpent-1-yl)-2-naphthoic acid], the “potentiation across GluN2A-D” value in experiment [2] (100 μM) is over 170%. Besides, in experiment [2] (read-out: EC50 values across GluN2A-D, range over GluN2A-D), the EC50 lay within 28 to 37.2 µM. Moreover, the “NMDAR agonist activity or effect on the holding current” value in experiment [1] is “no NMDAR agonist activity or effect on the holding current”.

With `CCCCCc1ccc2cc(CC(=O)O)ccc2c1` [Compound 21, (6-n-Pent-1-ylnaphthalen-2-yl)acetic acid], in experiment [2] (100 μM), the “inhibition on at least one of the GluN1/GluN2 subtypes” value is recorded as at least 50%.

Regarding `CCCCOc1ccc2cc(C(=O)O)ccc2c1` [Compound 24, 6-Butoxy-2-naphthoic acid], the “inhibition on at least one of the GluN1/GluN2 subtypes” value in experiment [2] (100 μM) was at least 50%.

As to `CC(C)CNC(=O)c1ccc2cc(C(=O)O)ccc2c1` [Compound 52, 6-(Isobutylcarbamoyl)-2-naphthoic acid], in experiment [2] (100 μM), the “inhibition on at least one of the GluN1/GluN2 subtypes” value is on record as at least 50%.

On to `CC(C)C(=O)OCc1ccc2cc(C(=O)O)ccc2c1` [Compound 54, 6-((Isobutyryloxy)methyl)-2-naphthoic acid], for which, in experiment [2] (100 μM), the “inhibition on at least one of the GluN1/GluN2 subtypes” value is at least 50%.

In the case of `CC(C)COCc1ccc2cc(C(=O)O)ccc2c1` [Compound 57, 6-(Isobutoxymethyl)-2-naphthoic acid], in experiment [2] (100 μM), the “inhibition on at least one of the GluN1/GluN2 subtypes” value was at least 50%.

In the case of `O=C(O)c1cc2cc(/C=C/c3ccccc3)ccc2cc1O` [Compound 79a, (E)-3-Hydroxy-7-styryl-2-naphthoic acid], in experiment [2] (GluN2C and GluN2D, from IC50 values, Table 6), the “fold greater inhibitory activity on GluN2C and GluN2D compared to 7” value is on record as 3–5 fold. The “maximal inhibition across GluN2A-D” value in experiment [2] (range over GluN2A-D) was 83–94%. The “fold greater inhibitory activity on GluN2B compared to 7” value in experiment [5] is ~ 10 fold.

Turning to `O=C(O)c1cc2cc(/C=C/c3ccccc3[N+](=O)[O-])ccc2cc1O` [Compound 79h, (E)-3-Hydroxy-7-(2-nitrostyryl)-2-naphthoic acid], in experiment [2] (GluN2A and GluN2D), the “fold lower IC50 on GluN2A and GluN2D compared to 79a” value amounted to 3 fold. In experiment [2] (range over GluN2B-D), the “maximal inhibition of GluN2B-D” value was 60–80%. For the same compound, the “percentage maximum inhibition of the agonist response, GluN2A” value in experiment [3] (value in parenthesis, ± s.e.m., L-glutamate 10 μM and glycine 10 μM) is 30%. Also, the “percentage maximum inhibition of the agonist response, GluN2D” value in experiment [6] was 70–80%. In experiment [5], the “fold higher IC50 on GluN2B compared to 79a” value stood at 4 fold.

`O=C(O)c1cc2cc(/C=C/c3cccc([N+](=O)[O-])c3)ccc2cc1O` [Compound 79i, (E)-3-Hydroxy-7-(3-nitrostyryl)-2-naphthoic acid]: the “fold higher inhibitory activity on GluN2C compared to 7” value in experiment [7] is listed as 5 fold. For the same compound, the “fold higher inhibitory activity on GluN2D compared to 7” value in experiment [6] (from IC50 values, Table 6) stood at 35 fold. In addition, in experiment [6], the “percentage maximum inhibition of the agonist response, GluN2D” value is 70–80%. Further, in experiment [5], the “fold greater inhibitory activity on GluN2B compared to 7” value was 10 fold.

In the case of `O=C(O)c1cc2cc(Br)ccc2oc1=O` [UBP608], in experiment [8], the “selectivity for GluN2A over GluN2D” value was 23 fold.

The values above are taken from paper PMC7043280 (European journal of medicinal chemistry, 2018).
